From patent US9877981B2, “NAD biosynthesis and precursors for the treatment and prevention of cancer and proliferation” (President and Fellows of Harvard College, priority 2012, dated 2018)

Legend:
PGC-1α/β KO myotubes = test: qPCR of ETC genes in PGC-1α/β KO myotubes; type: cell-based, mouse; design: expression of mitochondrially-encoded ETC genes (ND1, CYTB, COX1, ATP6): dose or concentration left out as unconfirmed
Procedure: Primary myoblasts cells were isolated from WT, SIRT1 KO (Price et al., 2012) and PGC-1α/β KO (Zechner et al., 2010) mice as previously described (Price et al., 2012). WT and PGC-1α/β KO primary myoblasts were plated and allowed to differentiate into myotubes by replacing the media with low glucose DMEM supplemented with 2% horse serum (Sigma-Aldrich) for 4 days. After the differentiation the cells were infected with empty vector or flag-SIRT1 adenovirus as described before (Gerhart-Hines et al., 2007). Media was replaced with fresh DMEM supplemented with 2% horse serum (Sigma-Aldrich) for an additional 48 hr and, after that the cells were harvested for the different assays as described. To investigate the role of HIF-1α in genome asynchrony, PGC-1α/β KO primary myotubes were treated for 12 hours with 1 mM DMOG (Sigma) or 10 μM DFO (Sigma), 24 h after infection with empty vector of flag-SIRT1 adenovirus or after 12 h treatment with […] NMN (Sigma).
RNA from skeletal muscle tissue and C2C12 cells were extracted with RNeasy mini kit (Qiagen) according to the instructions and quantified using the NanoDrop 1000 spectrophotometer (Thermo Scientific). cDNA was synthesized with the iSCRIP cDNA synthesis kit (BioRad) using 600 ng of RNA. Quantitative RT-PCR reactions were performed using 1 μM of primers and LightCycler® 480 SYBR Green Master (Roche) on an LightCycler® 480 detection system (Roche). Calculations were performed by a comparative method (2-ΔCT) using 18S as an internal control. For mtDNA analysis, total DNA was extracted with DNeasy blood and tissue kit (Qiagen). mtDNA was amplified using primers specific for the mitochondrial cytochrome c oxidase subunit 2 (COX2) gene and normalized to genomic DNA by amplification of the ribosomal protein s18 (rps18) nuclear gene. Primers were designed using the IDT software (IDT) and the primer sequences can be found in Table 1.

[1] = tested on: HIF-1α target genes (PGK-1, Glut1, PDK1 and Vegfa); test: qPCR of HIF-1α target genes in gastrocnemius of treated mice; type: in vivo; conditions: 3- and 24-month-old mice, NMN 500 mg/kg IP one week
Procedure: (§1) C57BL/6J mice of 3, 6, 22, 24, or 30 months of age were obtained from the National Institutes of Aging mouse aging colony. Mice were acclimated for at least one-week prior to sacrifice. 3, and 24-month-old mice were given interperitoneal (IP) injections of 500 mg NMN/kg body weight per day or the equivalent volume of PBS for 7 consecutive days at 5:00 pm and 7:00 am on day 8 and sacrificed 4 hr after last injection. All animal studies followed the guidelines of and were approved by the Harvard Institutional Animal Care and Use Committee
RNA from skeletal muscle tissue and C2C12 cells were extracted with RNeasy mini kit (Qiagen) according to the instructions and quantified using the NanoDrop 1000 spectrophotometer (Thermo Scientific). cDNA was synthesized with the iSCRIP cDNA synthesis kit (BioRad) using 600 ng of RNA. Quantitative RT-PCR reactions were performed using 1 μM of primers and LightCycler® 480 SYBR Green Master (Roche) on an LightCycler® 480 detection system (Roche). Calculations were performed by a comparative method (2-ΔCT) using 18S as an internal control. […]
RNA from skeletal muscle and aorta were extracted with RNeasy mini kit (Qiagen) according to the instructions and quantified using the NanoDrop 1000 spectrophotometer (Thermo Scientific). cDNA was synthesized with the iSCRIP cDNA synthesis kit (BioRad) using 600 ng of RNA. […]

VHL = test: Immunoblot for VHL in gastrocnemius of treated mice; type: in vivo; conditions: 6- and 22-month-old mice, NMN one week
Text: (§2) C57BL/6J mice of 6, 22, or 30 months of age were obtained from the National Institutes of Aging mouse aging colony. Additionally 22 months old caloric restricted mice were also obtained from the National Institutes of Aging mouse aging colony. EGLN1 KO, SIRT1 KO and SIRT1 OE mice were generated as previously described (Minamishima et al., 2008; Price et al., 2012). Mice were acclimated for at least one-week prior to sacrifice. 3, 6, 22 and 24-month-old mice were given interperitoneal (IP) injections of 500 mg NMN/kg body weight per day or the equivalent volume of PBS for 7 consecutive days at 5:00 pm and 7:00 am on day 8 and sacrificed 4 hr after last injection.
C57BL/6J mice of 3, 6, 22, or 24 months of age were obtained from the National Institutes of Aging mouse aging colony. […]
(§3) Protein extracts from tissue were obtained by lysis in ice-cold lysis buffer (150 mM NaCl, 10 mM Tris HCl (pH 7.4), 1 mM EDTA, 1 mM EGTA, 1% Triton X-100, 0.5% NP-40) supplemented with a cocktail of protease and phosphatase inhibitors (Roche). Protein content was determined by the Bradford protein assay (Biorad), and 50 μg proteins were run on SDS-PAGE under reducing conditions. […] The immunostaining was detected using horseradish peroxidase-conjugated anti-rabbit or anti-mouse immunoglobulin for 1 h at room temperature.

[2] = tested on: AKT and IRS-1 phosphorylation; test: Insulin signaling immunoblot (p-AKT, p-IRS-1) in muscle of treated mice; type: in vivo; conditions: old mice treated with NMN; soleus
Text: as §2
as §3, with “tissue or C2C12 cells” for “tissue”, “conditions. The separated proteins were then electrophoretically transferred to a polyvinylidene difluoride membrane (Perkin-Elmer).” for “conditions.”

primary myoblasts = test: qPCR of mitochondrial-encoded genes in primary myoblasts infected with NMNAT1 or nontargeting shRNA; type: cell-based, mouse; conditions: primary myoblasts with knockdown of NMNAT1
NAD+ = NAD+ levels in skeletal muscle of mice treated with NMN; type: in vivo, C57BL/6J mice; conditions: young and old
Procedure: as §1
NAD^+ from C2C12 cells and skeletal muscle was quantified with a commercially available kit (BioVision) according to the manufacturer's instructions and as described before (Gomes et al., Biochim. Biophys. Acta. 1822:185-195 (2012)).
C57BL/6J mice of 6, 22, or 30 months of age were obtained from the National Institutes of Aging mouse aging colony. Additionally 22 months old caloric restricted mice were also obtained from the National Institutes of Aging mouse aging colony. EGLN1 KO, SIRT1 KO and SIRT1 OE mice were generated as previously described (Minamishima et al., 2008; Price et al., 2012). Mice were acclimated for at least one-week prior to sacrifice. […]
NAD^+ from skeletal muscle was quantified with a commercially available kit (BioVision) according to the manufacturer's instructions and as described before (Gomes et al., 2012). […]

SMILES | effect on NMN-induced expression of mitochondrially-encoded ETC genes (PGC-1α/β KO myotubes; PGC-1α/β KO myotubes, NMN plus 1 mM DMOG or 10 μM DFO, 12 hours) | effect on NAD (pyruvate) mediated increases in mitochondrial-encoded genes (PGC-1α/β KO myotubes; PGC-1α/β KO myotubes, pyruvate in presence of DMOG) | expression of mitochondrial-encoded genes compared to vehicle control (PGC-1α/β KO myotubes; PGC-1α/β knockout myotubes treated with DMOG) | effect on induction of mitochondrial ETC genes by SIRT1 overexpression (PGC-1α/β KO myotubes; PGC-1α/β knockout myotubes with SIRT1 adenovirus, 1 mM DMOG or 10 μM DFO) | expression of mitochondrially-encoded ETC genes (ND1, CYTB, COX1, ATP6) (PGC-1α/β KO myotubes; PGC-1α/β KO myotubes incubated with NMN (12 h)) | expression of HIF-1α target genes [1] | VHL protein (VHL) | age-induced insulin resistance in the skeletal muscle [2] | phosphorylation of AKT and IRS-1 [2] | ability of NMN to induce expression of mitochondrial-encoded genes (primary myoblasts) | levels of cellular NAD+ (NAD+; 3- and 24-month-old C57BL/6J mice, NMN 500 mg/kg IP for one week, skeletal muscle) | levels of cellular NAD+ (NAD+; 6- and 22-month-old C57BL/6J mice, NMN for one week)
COC(=O)CNC(=O)C(=O)OC [DMOG, dimethyloxaloylglycine] | completely abolished | inhibited | induced a decline in the expression of mitochondrial-encoded genes | completely blocked |  |  |  |  |  |  |  | 
NC(=O)c1ccc[n+]([C@@H]2O[C@H](COP(=O)([O-])O)[C@@H](O)[C@H]2O)c1 [NMN, nicotinamide mononucleotide] |  |  |  |  | induced expression of mitochondrially-encoded ETC genes | suppressed the expression of HIF-1α target genes | reversed the age-induced decline in VHL | reverse age-induced insulin resistance | increasing the phosphorylation | completely abolishes the ability of NMN to induce the expression of mitochondrial-encoded genes | approximately 2 fold | 2 fold
